According to patent US20110262508A1, “ANTIMICROBIAL COMPOSITIONS, FORMULATIONS AND USES THEREOF” (priority 2007, published 2011):
Peptide text beside a SMILES is read from it.

System: A. baumannii ATCC 19606, Acinetobacter spp. ATCC 17903, Acinetobacter spp. ATCC 19004, E. coli BL21, S. aureus, S. typhimurium AroA, P. aeruginosa, P. …
Test: Antibacterial spectrum over the serial dilution panel (Table 6)
Assay type: cell-based
Conditions: summary of Table 6
Procedure: Synthetic peptides were tested for their ability to inhibit bacterial growth in liquid culture. The peptides were added at a concentration of between about 5 μM and about 10 μM to individual wells of 96-deep-well dishes that contained liquid growth media freshly inoculated with one of the following bacteria: A. baumannii ATCC Accession No. 19606, Acinetobacter spp. ATCC 17903, Acinetobacter spp. ATCC 19004, Escherichia coli strain BL21, S. aureus, S. typhimurium strain AroA, P. aeruginosa or P. pneumotropica. After 5-6 hours of shaking at 37° C., growth was measured as absorbance at 595 nm. As a control, cultures were grown in the presence of 0.1% acetonitrile (i.e., the concentration present in 10 μM peptide).

| Structure (SMILES) | selectively inhibited growth of S. aureus | other results |
| --- | --- | --- |
| CC[C@H](C)[C@H](NC(=O)[C@H](CO)NC(=O)[C@H](CCCNC(=N)N)NC(=O)[C@@H]1CCCN1C(=O)[C@H](Cc1c[nH]c2ccccc12)NC(=O)[C@H](Cc1c[nH]cn1)NC(=O)[C@H](CC(N)=O)NC(=O)[C@H](Cc1c[nH]c2ccccc12)NC(=O)[C@H](CCCCN)NC(=O)[C@H](CCCCN)NC(=O)CNC(=O)[C@H](CCCCN)NC(=O)[C@H](CCC(N)=O)NC(=O)[C@H](CCCCN)NC(=O)[C@H](CCCCN)NC(=O)[C@H](CO)NC(=O)[C@H](CCCNC(=N)N)NC(=O)[C@H](CC(C)C)NC(=O)[C@H](CC(N)=O)NC(=O)[C@H](C)N)C(=O)N[C@@H](CCCCN)C(=O)N[C@@H](C)C(=O)O [Ac101] (H-ANLRSKKQKGKKWNHWPRSIKA-OH; N-terminus and C-terminus assumed) | – | selectively inhibited growth of Acinetobacter spp. ATCC 19004, and S. aureus: selectively inhibited growth |
| CC[C@H](C)[C@H](NC(=O)[C@H](CC(C)C)NC(=O)[C@H](CCCNC(=N)N)NC(=O)[C@@H](NC(=O)[C@@H](NC(=O)[C@H](Cc1ccc(O)cc1)NC(=O)[C@H](CCCCN)NC(=O)[C@@H](N)Cc1ccc(O)cc1)[C@@H](C)CC)[C@@H](C)CC)C(=O)N[C@@H](CCC(=O)O)C(=O)N[C@@H](CC(N)=O)C(=O)N[C@@H](Cc1c[nH]c2ccccc12)C(=O)NCC(=O)N[C@@H](CCC(=O)O)C(=O)N[C@@H](CS)C(=O)NCC(=O)N[C@@H](CS)C(=O)N[C@@H](CCCNC(=N)N)C(=O)N[C@@H](Cc1ccc(O)cc1)C(=O)N[C@@H](CS)C(=O)N[C@@H](CCCNC(=N)N)C(=O)N[C@H](C(=O)N[C@H](C(=O)N[C@@H](CCCNC(=N)N)C(=O)O)C(C)C)[C@@H](C)CC [Ac18] (H-YKYIIRLIENWGECGCRYCRIVR-OH; N-terminus and C-terminus assumed) | selectively inhibited growth | – |
| CC[C@H](C)[C@H](NC(=O)CN)C(=O)NCC(=O)N[C@@H](CCCCN)C(=O)N[C@@H](Cc1ccccc1)C(=O)N[C@@H](CC(C)C)C(=O)N[C@@H](Cc1c[nH]cn1)C(=O)N[C@@H](CO)C(=O)N[C@@H](C)C(=O)N[C@@H](CCCCN)C(=O)N[C@@H](CCCCN)C(=O)N[C@@H](Cc1ccccc1)C(=O)NCC(=O)N[C@@H](CCCCN)C(=O)N[C@@H](C)C(=O)N[C@@H](Cc1ccccc1)C(=O)N[C@H](C(=O)NCC(=O)N[C@@H](CCC(=O)O)C(=O)N[C@H](C(=O)N[C@@H](CCSC)C(=O)N[C@@H](CC(N)=O)C(=O)N[C@@H](CO)C(=O)O)[C@@H](C)CC)C(C)C [Ac178, reference compound] (H-GIGKFLHSAKKFGKAFVGEIMNS-OH; N-terminus and C-terminus assumed) | selectively inhibited growth | – |
| CC[C@H](C)[C@H](NC(=O)[C@H](CC(C)C)NC(=O)[C@H](CCCNC(=N)N)NC(=O)[C@@H](NC(=O)[C@@H](NC(=O)[C@H](Cc1ccc(O)cc1)NC(=O)[C@H](CCCCN)NC(=O)[C@@H](N)Cc1ccc(O)cc1)[C@@H](C)CC)[C@@H](C)CC)C(=O)N[C@@H](CCC(=O)O)C(=O)N[C@@H](CC(N)=O)C(=O)N[C@@H](Cc1c[nH]c2ccccc12)C(=O)NCC(=O)N[C@@H](CCC(=O)O)C(=O)N[C@@H](CO)C(=O)NCC(=O)N[C@@H](CO)C(=O)N[C@@H](CCCNC(=N)N)C(=O)N[C@@H](Cc1ccc(O)cc1)C(=O)N[C@@H](CO)C(=O)N[C@@H](CCCNC(=N)N)C(=O)N[C@H](C(=O)N[C@H](C(=O)N[C@@H](CCCNC(=N)N)C(=O)O)C(C)C)[C@@H](C)CC [Ac19] (H-YKYIIRLIENWGESGSRYSRIVR-OH) | – | selectively inhibited growth of A. baumannii ATCC Accession No. 19606, Acinetobacter spp. ATCC 17903, Acinetobacter spp. ATCC 19004, and S. aureus: selectively inhibited growth |
| CC[C@H](C)[C@H](NC(=O)[C@H](CCSC)NC(=O)[C@H](Cc1c[nH]c2ccccc12)NC(=O)[C@@H](N)Cc1c[nH]cn1)C(=O)N1CCC[C@H]1C(=O)N[C@@H](CC(C)C)C(=O)N[C@@H](CCCNC(=N)N)C(=O)N[C@@H](CCCCN)C(=O)NCC(=O)N[C@@H](C)C(=O)N[C@@H](CCC(N)=O)C(=O)N[C@@H](Cc1ccc(O)cc1)C(=O)N[C@@H](CCC(=O)O)C(=O)N[C@@H](CCC(=O)O)C(=O)N[C@@H](CC(C)C)C(=O)N[C@@H](CCCNC(=N)N)C(=O)N[C@@H](CCCCN)C(=O)N[C@@H](CC(C)C)C(=O)N[C@@H](CO)C(=O)N[C@@H](CCCCN)C(=O)NCC(=O)N[C@@H](CC(=O)O)C(=O)N[C@@H](Cc1c[nH]cn1)C(=O)O [Ac97] (H-HWMIPLRKGAQYEELRKLSKGDH-OH; N-terminus and C-terminus assumed) | selectively inhibited growth | – |
| CC[C@H](C)[C@H](NC(=O)[C@H](CC(C)C)NC(=O)[C@H](CCCCN)NC(=O)[C@@H](N)Cc1ccccc1)C(=O)N1CCC[C@H]1C(=O)N[C@H](C(=O)N[C@@H](CCCNC(=N)N)C(=O)N[C@@H](CCCNC(=N)N)C(=O)N[C@@H](CO)C(=O)N[C@@H](CO)C(=O)N[C@@H](CC(C)C)C(=O)N[C@H](C(=O)N[C@@H](CCCCN)C(=O)N[C@@H](CO)C(=O)N[C@@H](CC(C)C)C(=O)N1CCC[C@H]1C(=O)N[C@@H](C)C(=O)N[C@@H](Cc1ccccc1)C(=O)N[C@@H](CCCNC(=N)N)C(=O)N[C@@H](CCCNC(=N)N)C(=O)N[C@@H](CCCCN)C(=O)N[C@@H](C)C(=O)N1CCC[C@H]1C(=O)O)C(C)C)[C@@H](C)O [Ac116] (H-FKLIPTRRSSLVKSLPAFRRKAP-OH; N-terminus and C-terminus assumed) | – | selectively inhibited growth of Acinetobacter spp. ATCC 19004: selectively inhibited growth |
| CC[C@H](C)[C@H](NC(=O)[C@H](Cc1c[nH]c2ccccc12)NC(=O)[C@H](CC(=O)O)NC(=O)[C@H](CO)NC(=O)[C@H](CO)NC(=O)[C@H](CC(C)C)NC(=O)[C@H](CC(C)C)NC(=O)[C@H](C)NC(=O)[C@H](CO)NC(=O)[C@H](CCCNC(=N)N)NC(=O)[C@H](CC(C)C)NC(=O)[C@@H](N)CCCNC(=N)N)C(=O)N[C@H](C(=O)N[C@@H](CO)C(=O)N[C@@H](CO)C(=O)N[C@@H](CCCNC(=N)N)C(=O)N[C@@H](CC(C)C)C(=O)N[C@@H](CC(C)C)C(=O)NCC(=O)N[C@H](C(=O)N[C@@H](CC(N)=O)C(=O)N[C@@H](CO)C(=O)N[C@@H](CCC(N)=O)C(=O)O)C(C)C)C(C)C [Ac41] (H-RLRSALLSSDWIVSSRLLGVNSQ-OH; N-terminus and C-terminus assumed) | – | selectively inhibited growth of Acinetobacter spp. ATCC 19004, and S. aureus: selectively inhibited growth |
| CC[C@H](C)[C@H](NC(=O)[C@H](CCCNC(=N)N)NC(=O)[C@H](CCCNC(=N)N)NC(=O)[C@H](CS)NC(=O)CNC(=O)[C@H](CO)NC(=O)[C@@H](NC(=O)[C@@H](NC(=O)[C@H](CC(=O)O)NC(=O)[C@H](CCCCN)NC(=O)[C@@H](NC(=O)[C@H](CS)NC(=O)[C@@H](NC(=O)[C@@H](N)Cc1ccccc1)C(C)C)C(C)C)[C@@H](C)O)[C@@H](C)CC)C(=O)N[C@H](C(=O)NCC(=O)N[C@@H](Cc1ccccc1)C(=O)N[C@@H](CS)C(=O)N[C@H](C(=O)NCC(=O)N[C@@H](Cc1c[nH]c2ccccc12)C(=O)N[C@@H](CCCNC(=N)N)C(=O)N[C@@H](CC(C)C)C(=O)O)C(C)C)[C@@H](C)O [Ac102] (H-FVCVKDTISGCRRITGFCVGWRL-OH; N-terminus and C-terminus assumed) | – | selectively inhibited growth of Acinetobacter spp. ATCC 19004, and S. aureus: selectively inhibited growth |
| CC(C)C[C@H](NC(=O)[C@H](CCCCN)NC(=O)[C@H](CCCNC(=N)N)NC(=O)[C@H](CC(C)C)NC(=O)[C@H](CCC(=O)O)NC(=O)[C@H](CCC(=O)O)NC(=O)[C@H](Cc1ccc(O)cc1)NC(=O)[C@H](CCC(N)=O)NC(=O)[C@H](C)NC(=O)CN)C(=O)N[C@@H](CO)C(=O)N[C@@H](CCCCN)C(=O)NCC(=O)N[C@@H](CC(=O)O)C(=O)N[C@@H](Cc1c[nH]cn1)C(=O)N[C@@H](CC(C)C)C(=O)N[C@H](C(=O)N[C@@H](CCCCN)C(=O)N[C@@H](CC(C)C)C(=O)N[C@@H](CCCCN)C(=O)N[C@H](C(=O)N[C@@H](CO)C(=O)N1CCC[C@H]1C(=O)O)[C@@H](C)O)C(C)C [Ac98] (H-GAQYEELRKLSKGDHLVKLKTSP-OH; N-terminus and C-terminus assumed) | selectively inhibited growth | – |
| CSCC[C@H](NC(=O)[C@H](CCCNC(=N)N)NC(=O)[C@H](CO)NC(=O)[C@H](CCCNC(=N)N)NC(=O)[C@H](CCCNC(=N)N)NC(=O)[C@H](CC(N)=O)NC(=O)[C@H](Cc1c[nH]cn1)NC(=O)[C@@H]1CCCN1C(=O)[C@H](Cc1c[nH]cn1)NC(=O)[C@@H]1CCCN1C(=O)[C@H](Cc1c[nH]cn1)NC(=O)[C@@H](NC(=O)[C@H](CCC(N)=O)NC(=O)[C@@H](NC(=O)[C@H](Cc1ccc(O)cc1)NC(=O)[C@H](Cc1c[nH]cn1)NC(=O)[C@H](Cc1c[nH]cn1)NC(=O)[C@H](Cc1c[nH]cn1)NC(=O)[C@@H](N)Cc1c[nH]c2ccccc12)[C@@H](C)O)[C@@H](C)O)C(=O)N[C@@H](CO)C(=O)N[C@@H](CCCNC(=N)N)C(=O)N[C@@H](C)C(=O)N[C@@H](CCCNC(=N)N)C(=O)O [Ac56] (H-WHHHYTQTHPHPHNRRSRMSRAR-OH; N-terminus and C-terminus assumed) | selectively inhibited growth | – |
| CC(C)C[C@H](NC(=O)CNC(=O)[C@@H]1CCCN1C(=O)[C@H](Cc1c[nH]c2ccccc12)NC(=O)[C@H](CCCCN)NC(=O)[C@H](CCCCN)NC(=O)[C@H](CCCNC(=N)N)NC(=O)[C@H](C)NC(=O)[C@H](CCC(N)=O)NC(=O)[C@@H]1CCCN1)C(=O)NCC(=O)N[C@@H](CC(N)=O)C(=O)N[C@@H](CCC(=O)O)C(=O)N[C@H](C(=O)N[C@H](C(=O)N[C@@H](C)C(=O)N[C@@H](CCCNC(=N)N)C(=O)N[C@@H](CC(C)C)C(=O)N[C@@H](CC(C)C)C(=O)N[C@H](C(=O)N[C@H](C(=O)N[C@@H](CO)C(=O)N[C@@H](C)C(=O)O)C(C)C)[C@@H](C)O)[C@@H](C)O)C(C)C [Ac100] (H-PQARKKWPGLGNEVTARLLTVSA-OH; N-terminus and C-terminus assumed) | selectively inhibited growth | – |
